O=C(O)/C=C\C=C/C(=O)O
solubility (mole fraction)
Settings | in acetic acid | in ethanol | in isopropanol | in water
298.15 K | 0.0029 | 0.0117 | 0.0101 | 0.0002
303.15 K | 0.0034 | 0.0139 | 0.0107 | 0.0004
308.15 K | 0.0039 | 0.016 | 0.0124 | 0.0006
313.15 K | 0.0044 | 0.0184 | 0.0139 | 0.0008
318.15 K | 0.0052 | 0.0236 | 0.0156 | 0.0014
323.15 K | 0.0057 | 0.0293 | 0.017 | 0.0021
328.15 K | 0.0065 | 0.037 | 0.0204 | 0.0031
333.15 K | 0.0076 | 0.0478 | 0.0244 | 0.005
338.15 K | 0.0086 | 0.0595 | 0.0274 | 0.0068
343.15 K | 0.01 | 0.0715 | 0.0297 | 0.0106
348.15 K | 0.0125 | 0.0847 | 0.0342 | 0.0153

— BigSolDB 2.1
